Reference: PubChem BioAssay (NCI)
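Following 48 hours of exposure in 96-well plates, responses at five concentrations were used to interpolate endpoints linearly. Definition used: TGI = concentration required for complete inhibition of growth.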

Legend:
Test in all cases: NCI anticancer screen, dose series, 48 h
HL-60(TB) leukemia = tested on: HL-60(TB) leukemia
SF-295 CNS = tested on: SF-295 CNS
CCRF-CEM leukemia = tested on: CCRF-CEM leukemia
MDA-MB-435 = tested on: MDA-MB-435
T-47D breast = tested on: T-47D breast
COLO 205 colon = tested on: COLO 205 colon
UACC-257 melanoma = tested on: UACC-257 melanoma
RXF 393 renal = tested on: RXF 393 renal
NCI-H23 lung = tested on: NCI-H23 lung
HS 578T breast = tested on: HS 578T breast
BT-549 breast = tested on: BT-549 breast
MCF7 breast = tested on: MCF7 breast
SR leukemia = tested on: SR leukemia
MDA-N = tested on: MDA-N
EKVX NSCLC = tested on: EKVX NSCLC
UO-31 renal = tested on: UO-31 renal
CAKI-1 renal = tested on: CAKI-1 renal
OVCAR-3 ovarian = tested on: OVCAR-3 ovarian
U251 CNS = tested on: U251 CNS
K-562 leukemia = tested on: K-562 leukemia
IGROV1 ovarian = tested on: IGROV1 ovarian
SK-MEL-2 melanoma = tested on: SK-MEL-2 melanoma
786-0 renal = tested on: 786-0 renal
RPMI-8226 leukemia = tested on: RPMI-8226 leukemia
SNB-75 CNS = tested on: SNB-75 CNS
PC-3 prostate = tested on: PC-3 prostate
MOLT-4 leukemia = tested on: MOLT-4 leukemia
HOP-92 NSCLC = tested on: HOP-92 NSCLC
KM12 colon = tested on: KM12 colon
NCI-H460 lung = tested on: NCI-H460 lung
ACHN renal = tested on: ACHN renal
SW-620 colon = tested on: SW-620 colon
NCI-H522 lung = tested on: NCI-H522 lung
HCT-116 colon = tested on: HCT-116 colon
MALME-3M melanoma = tested on: MALME-3M melanoma
MDA-MB-231 breast = tested on: MDA-MB-231 breast
SK-MEL-5 melanoma = tested on: SK-MEL-5 melanoma
DU-145 prostate = tested on: DU-145 prostate
NCI-H226 lung = tested on: NCI-H226 lung
NCI/ADR-RES ovarian = tested on: NCI/ADR-RES ovarian
HCT-15 colon = tested on: HCT-15 colon
HT29 colon = tested on: HT29 colon
A549 NSCLC = tested on: A549 NSCLC
SN12C renal = tested on: SN12C renal
UACC-62 melanoma = tested on: UACC-62 melanoma
OVCAR-5 ovarian = tested on: OVCAR-5 ovarian
OVCAR-8 ovarian = tested on: OVCAR-8 ovarian
SK-OV-3 ovarian = tested on: SK-OV-3 ovarian
A498 renal = tested on: A498 renal
SK-MEL-28 melanoma = tested on: SK-MEL-28 melanoma
HOP-62 NSCLC = tested on: HOP-62 NSCLC
OVCAR-4 ovarian = tested on: OVCAR-4 ovarian
SF-268 CNS = tested on: SF-268 CNS
M14 melanoma = tested on: M14 melanoma
SF-539 CNS = tested on: SF-539 CNS
SNB-19 CNS = tested on: SNB-19 CNS
TK-10 renal = tested on: TK-10 renal
LOX IMVI melanoma = tested on: LOX IMVI melanoma
HCC-2998 colon = tested on: HCC-2998 colon

Measured: TGI

COC(=O)C1=C(C)NC2=C(C(=O)c3ccccc32)C1c1cn[nH]c1-c1ccccc1 (stereo not given)
52 µM: COLO 205 colon
87.4 µM: SR leukemia
not listed: TK-10 renal | LOX IMVI melanoma | HCC-2998 colon
> 100 µM: all other assays above

Clc1ccc(Nc2nnc(CNc3ccc(-c4nnc(Nc5ccc(Cl)cc5)o4)cc3)o2)cc1
34.9 µM: MCF7 breast
35.2 µM: UO-31 renal
49.7 µM: SK-OV-3 ovarian
23.2 µM: U251 CNS
47.3 µM: NCI-H226 lung
48.7 µM: HOP-92 NSCLC
30.4 µM: IGROV1 ovarian
45.8 µM: SK-MEL-2 melanoma
50.6 µM: UACC-257 melanoma
33.7 µM: HCT-116 colon
34.7 µM: SK-MEL-28 melanoma
36.9 µM: SN12C renal
25.4 µM: MDA-MB-231 breast
44.5 µM: MDA-N
38.4 µM: SF-295 CNS
73.9 µM: SF-268 CNS
46 µM: SNB-19 CNS
38.6 µM: BT-549 breast
36.7 µM: HS 578T breast
36.3 µM: COLO 205 colon | SF-539 CNS
43.6 µM: ACHN renal
33.9 µM: CAKI-1 renal
28.5 µM: MALME-3M melanoma
40.7 µM: OVCAR-5 ovarian
35.4 µM: HCT-15 colon
43.2 µM: M14 melanoma
35.1 µM: HOP-62 NSCLC
30.2 µM: A549 NSCLC
37.1 µM: NCI-H522 lung
28.9 µM: TK-10 renal | A498 renal
25.3 µM: PC-3 prostate
44.4 µM: EKVX NSCLC
30.6 µM: MDA-MB-435
42.6 µM: OVCAR-4 ovarian
49.3 µM: MOLT-4 leukemia
34.6 µM: RXF 393 renal
36 µM: NCI-H23 lung
21.8 µM: 786-0 renal
23.3 µM: KM12 colon
20.7 µM: LOX IMVI melanoma
27.8 µM: UACC-62 melanoma | HCC-2998 colon
41.6 µM: NCI-H460 lung
> 77.9 µM: NCI/ADR-RES ovarian
33.4 µM: SK-MEL-5 melanoma
25.7 µM: OVCAR-8 ovarian
56.6 µM: T-47D breast
26.2 µM: DU-145 prostate
33.1 µM: HT29 colon
45.1 µM: SNB-75 CNS
51.2 µM: SW-620 colon
23.9 µM: OVCAR-3 ovarian
not listed: SR leukemia
> 100 µM: all other assays above

CC(C)(N)C(=O)N[C@@H]1C(=O)N2[C@@H]1SC(C)(C)[C@@H]2C(=O)O
not listed: HL-60(TB) leukemia | CCRF-CEM leukemia | MOLT-4 leukemia | HCC-2998 colon
> 100 µM: all other assays above

CC1=C(C(=O)NCCCN(CCO)CCO)CC(C(=O)NCCCN(CCO)CCO)=C(C)N1
80 µM: SNB-75 CNS
77.9 µM: CCRF-CEM leukemia
95.7 µM: SK-MEL-5 melanoma
not listed: SR leukemia | MALME-3M melanoma | SK-MEL-28 melanoma
> 100 µM: all other assays above
